Calls of active or inactive are those of the source. The calls are words filed in the database; no cut-off is given here.
What was measured:
A549 [1] = test: cells; details: Homo sapiens, A549, 48 h
Description: Cytotoxicity against human A549 cells after 48 hrs by MTT assay

HL-60 = test: Cytotoxicity against human HL60 cells after 48 hrs by CCK-8 assay; type: functional, cell-based; details: HL-60, 48 h
HeLa = test: Cytotoxicity against human HeLa cells after 48 hrs by CCK-8 assay; type: functional, cell-based
SiHa = test: Cytotoxicity against human SiHa cells after 48 hrs by MTT assay; type: functional, cell-based
A549 [2] = test: Induction of apoptosis in human A549 cells assessed as nuclear condensation at 0.5 uM after 24 hrs by Hoechst 33258 staining based fluorescence microscopy; type: functional, cell-based
A549 [3] = test: Cell cycle arrest in human A549 cells assessed as accumulation at G2/M phase at 0.5 uM by propidium iodide staining based flow cytometry analysis; type: functional; details: TDE = time-dependent effect
A549 [4] = test: Cell cycle arrest in human A549 cells assessed as accumulation at G1 phase at 0.5 uM after 12 hrs by propidium iodide staining based flow cytometry analysis (reference value: 54.1%); type: functional
A549 [5] = test: Cell cycle arrest in human A549 cells assessed as accumulation at G2/M phase at 0.5 uM after 12 hrs by propidium iodide staining based flow cytometry analysis (reference value: 15.6%); type: functional
A549 [6] = test: Cell cycle arrest in human A549 cells assessed as accumulation at S phase at 0.5 uM after 24 hrs by propidium iodide staining based flow cytometry analysis (reference value: 30.3%); type: functional
A549 [7] = test: Cell cycle arrest in human A549 cells assessed as accumulation at S phase at 0.5 uM after 12 hrs by propidium iodide staining based flow cytometry analysis (reference value: 30.3%); type: functional
A549 [8] = test: Cell cycle arrest in human A549 cells assessed as accumulation at G1 phase at 0.5 uM by propidium iodide staining based flow cytometry analysis; type: functional; details: TDE = time-dependent effect
A549 [9] = test: Induction of apoptosis in human A549 cells assessed as increase in caspase-3 cleavage at 0.5 uM by Western blot analysis; type: functional, cell-based; details: TDE = time-dependent effect
A549 [10] = test: Cell cycle arrest in human A549 cells assessed as accumulation at G1 phase at 0.5 uM after 24 hrs by propidium iodide staining based flow cytometry analysis (reference value: 54.1%); type: functional
A549 [11] = test: Induction of apoptosis in human A549 cells assessed as cell shrinkage at 0.5 uM after 24 hrs by Hoechst 33258 staining based fluorescence microscopy; type: functional
A549 [12] = test: Induction of apoptosis in human A549 cells assessed as nuclear fragmentation at 0.5 uM after 24 hrs by Hoechst 33258 staining based fluorescence microscopy; type: functional, cell-based
A549 [13] = test: Induction of apoptosis in human A549 cells assessed as increase in caspase-7 cleavage at 0.5 uM by Western blot analysis; type: functional, cell-based; details: TDE = time-dependent effect
A549 [14] = test: Induction of apoptosis in human A549 cells assessed as membrane blebbing at 0.5 uM after 24 hrs by Hoechst 33258 staining based fluorescence microscopy; type: functional, cell-based
A549 [15] = test: Induction of apoptosis in human A549 cells assessed as cell detachment at 0.5 uM after 24 hrs by Hoechst 33258 staining based fluorescence microscopy; type: functional
A549 [16] = test: Cell cycle arrest in human A549 cells assessed as accumulation at G2/M phase at 0.5 uM after 24 hrs by propidium iodide staining based flow cytometry analysis (reference value: 15.6%); type: functional

Compound | IC50 (A549 [1]) [nM] | IC50 (HL-60) [nM] | IC50 (HeLa) [nM] | IC50 (SiHa) [nM] | also measured
COc1cc([C@@H]2c3cc4c(cc3C[C@H]3COC(=O)[C@@H]32)OCO4)cc(OC)c1OC(=O)[C@@H](NC(=O)Cn1cc(F)c(=O)[nH]c1=O)C(C)C | 360 | 140 | 1230 | 1650 | –
COc1cc([C@@H]2c3cc4c(cc3C[C@H]3COC(=O)[C@@H]32)OCO4)cc(OC)c1OC(=O)[C@H](Cc1ccccc1)NC(=O)Cn1cc(F)c(=O)[nH]c1=O | 560 | 23 | 830 | 760 | Activity (A549 [2]): Active; Activity (A549 [3]): tde; Activity (A549 [4]): 4.84%; Activity (A549 [5]): 52.6%; Activity (A549 [6]): 31.3%; Activity (A549 [7]): 42.6%; Activity (A549 [8]): tde; Activity (A549 [9]): tde; Activity (A549 [10]): 3.94%; Activity (A549 [11]): Active; Activity (A549 [12]): Active; Activity (A549 [13]): tde; Activity (A549 [14]): Active; Activity (A549 [15]): Active; Activity (A549 [16]): 64.8%
COc1cc([C@@H]2c3cc4c(cc3C[C@H]3COC(=O)[C@@H]32)OCO4)cc(OC)c1OC(=O)[C@H](CC(C)C)NC(=O)Cn1cc(F)c(=O)[nH]c1=O | 1070 | 63 | 430 | 350 | –
COc1cc([C@@H]2c3cc4c(cc3C[C@H]3COC(=O)[C@@H]32)OCO4)cc(OC)c1OC(=O)Cn1cc(F)c(=O)[nH]c1=O | 660 | 35 | 180 | 110 | –
COc1cc([C@@H]2c3cc4c(cc3[C@H](O)[C@H]3COC(=O)[C@H]23)OCO4)cc(OC)c1OC | – | – | – | – | Activity (A549 [2]): Active; Activity (A549 [11]): Active; Activity (A549 [12]): Active; Activity (A549 [14]): Active; Activity (A549 [15]): Active
COc1cc([C@@H]2c3cc4c(cc3C[C@H]3COC(=O)[C@@H]32)OCO4)cc(OC)c1OC(=O)[C@@H](CCSC)NC(=O)Cn1cc(F)c(=O)[nH]c1=O | 2600 | 940 | 1970 | 1510 | –
O=c1[nH]cc(F)c(=O)[nH]1 [FLUOROURACIL] | 54800 | 68300 | 82200 | 218000 | –
COc1cc([C@@H]2c3cc4c(cc3C[C@H]3COC(=O)[C@@H]32)OCO4)cc(OC)c1OC(=O)[C@H](CCSC)NC(=O)Cn1cc(F)c(=O)[nH]c1=O | 830 | 230 | 780 | 360 | –
COc1cc([C@@H]2c3cc4c(cc3C[C@H]3COC(=O)[C@@H]32)OCO4)cc(OC)c1OC(=O)[C@H](C)NC(=O)Cn1cc(F)c(=O)[nH]c1=O | 1400 | 190 | 200 | 600 | –
COc1cc([C@@H]2c3cc4c(cc3C[C@H]3COC(=O)[C@@H]32)OCO4)cc(OC)c1O [4'-DEMETHYLDEOXYPODOPHYLLOTOXIN] | – | – | 53300 | 43000 | –
COc1cc([C@@H]2c3cc4c(cc3C[C@H]3COC(=O)[C@@H]32)OCO4)cc(OC)c1OC [DESOXYPODOPHYLLOTOXIN] | – | – | 6010 | 1980 | –
COc1cc([C@@H]2c3cc4c(cc3[C@@H](O[C@@H]3O[C@@H]5CO[C@@H](C)O[C@H]5[C@H](O)[C@H]3O)[C@H]3COC(=O)[C@H]23)OCO4)cc(OC)c1O [ETOPOSIDE] | – | – | 40400 | 2760 | –

Reference: ChEMBL document CHEMBL1944503, “Synthesis and biological evaluation of conjugates of deoxypodophyllotoxin and 5-FU as inducer of caspase-3 and -7” (Eur J Med Chem, 2012)
